The test system of assay [1] is Aiolos. As to the kind of experiment: Aiolos Western blotting in monkey PBMCs. The assay is classed as cell-based, Mauritius Monkey. The note with it: 2 nM and 200 nM, 18 hours after treatment. (In general: In western blotting, separated proteins are transferred to a membrane and probed.)
A further assay concerns Aiolos/IKZF3. As to the kind of experiment: Cyno Monkey dose regimen study, Aiolos Western blotting of PBMC. As to conditions: for Aiolos 42 kD / Aiolos 58 kD: in several monkeys. The assay is classed as in vivo, Cynomolgus (M. fascicularis). The text has this:
As depicted in FIG. 4, the study in Cynomolgus monkeys was divided in two phases: Phase I (7 days of oral doing with test article, Compound B hydrochloride) followed by 28 day test article free period and finally Phase II (28 days of oral dosing with test article). The objective of the Phase I of this study was to determine the onset and duration of pharmacodynamic effect of Compound B. The objective of the Phase II of this study was to explore the relationship the pharmacodynamic effects and safety/tolerability of Compound B. In addition, the toxicokinetic characteristics of Compound B were determined. Doses of Compound B tested were 0.75 mg/kg QD, every other day, or 4 days on, 3 days off. The test and control articles were administered to the appropriate animals by gavage from Days 1 to 7 for Phase I and from Days 1 to 28 in Phase II following dose regimens as described above. Phase I and Phase II were separated by at least a 28 day dose free session. The dose volume for each animal was based on the most recent body weight measurement. A naso/orogastric tube was inserted through a nostril (nasogastric) or through the mouth (orogastric) and advanced into the lower esophagus to the stomach. The animals were temporarily restrained (e.g., manually) for dose administration, and were not sedated. Disposable sterile syringes and naso/orogastric tubes were used for each animal/dose. Each dose were followed by a tap water flush of approximately 5 mL. The dosing formulations were stirred continuously during dose administration. Peripheral blood mononuclear cell subsets analyzed by flow cytometry were: CD45^+/CD3^+/CD20^+/CD16^+, CD45^+/CD20^+, CD45^+/CD3^+, CD45^+/CD3^+/CD4^+, CD45^+/CD3^+/CD8^+, CD45^+/CD3^−/CD16^+, CD45^+/CD3^−/CD14^+. Anti-KLH antibody titers were assayed by ELISA (FIG. 5). The protein levels of Aiolos/IKZF3 were measured in the peripheral blood mononuclear cells as follows. Cynomolgus (M. fascicularis) blood yielded approximately 10 million (10×10^6) mononuclear cells (PBMC) per 2.5 ml whole blood (according to protocol by Non Human Primate Reagent Source, Boston). After the cyno PBMC isolation, each sample was divided into two portions: 7×10^6 cells for protein analysis and 3×10^6 cells for mRNA analysis. All steps were done on ice, all centrifugation in a 4° C. refrigerated centrifuge. RIPA lysis buffer (Pierce, cat#89900) was prepared by adding 10 μL proteinase inhibitors (Pierce, cat#78443) to 1 mL of RIPA buffer. The PBMC was washed once in ice-cold phosphate buffered saline (PBS). Lysis buffer (use 0.25 mL RIPA lysis buffer per 7×10^6 PBMC) was added. The tube was placed on ice for 30 minutes, vortexed every 10 min. The lysate was frozen and store at −80° C. until analysis. The lysate was placed into a QIAshredder tube (QIAGEN, cat#79656) and spun down 30 sec at top speed (13200 rpm) in an Eppendorf benchtop centrifuge (Model 5415 R). […] The supernatant was collected without disturbing cell debris pellet (RIPA reagent enables the extraction of membrane, nuclear and cytoplasmic proteins that will remain in the supernatant). The protein lysate was frozen on dry ice and stored at −80° C. until analysis. The protein concentration was measured using BCA assay. The protein yield was expected to be 0.5-5 μg/μL, or 125-1250 μg total. ≧10 μg protein was loaded per lane for western for IKZF3/Aiolos using antibodies against the human proteins.

In assay [2] the test system is Aiolos. As to the kind of experiment: SimpleWestern of normal human CD19+ B cells, Aiolos. The assay is classed as cell-based. As to conditions: various concentrations. The protocol:
Human B cells were isolated from 3 donors of whole bloods from the New Jersey Blood Center using B cell isolation kits from StemCell Technologies. IKZF family proteins were quantified using the automated capillary-based SimpleWestern System Sally (ProteinSimple). 100 ng of cell lysate protein or serial dilutions of recombinant proteins were mixed in reducing buffer with fluorescent Molecular Weight (MW) standards. After these samples were heated to 95° C. for 5 min, samples were loaded into each capillary tubes and proteins were separated based on MW sizes through stacking and separation matrices for 40 minutes at 250 Volts. Proteins were then immobilized to capillary walls using optimal photoactivated capture chemistry. Following protein immobilization, capillaries were incubated with a blocking reagent for 23 min and target proteins were probed with a specific primary antibody and horseradish peroxidase-conjugated anti-rabbit secondary antibody (ProteinSimple). A mixture of luminol and peroxide (ProteinSimple) was added, the resulting chemiluminescent signal was captured by a CCD camera, and the signal intensities were quantified and analyzed using Compass Software for Sally (ProteinSimple). The Ikaros family proteins in each sample were then calculated based on standard curve of human recombinant proteins. B-Actin was also used as an internal normalization control.

Assay [3] deals with Aiolos. As to the kind of experiment: Aiolos regulation in cells with low or lost CRBN expression. The assay is classed as cell-based. The note with it: loss of CRBN protein.
The next assay concerns DLBCL cell lines. As to the kind of experiment: Proliferation of DLBCL cell lines in vitro. The assay is classed as cell-based.
Assay [4] relates to Aiolos. Kind of assay: Aiolos protein degradation in Jurkat cells. The assay is classed as cell-based. The procedure: (§1) Jurkat cells were transfected with wildtype full length Aiolos and different lysine mutated full length Aiolos DNA (Origene, 5 μg DNA/100 μL R buffer/2×10^6 cells/shot) using Neon Transfection System (Invitrogen, Grand Island, N.Y.) with program 1350 voltage+10 width+3 pulse. GFP control DNA (Lonza) was also transfected. Transfected cells were cultured in 24-well plate with 1 mL RPMI+10% FBS at 37° C. for 6 hrs and then treated with DMSO or drug for another 48 hrs, Drug treated cells were collected for measuring Aiolos and Ikaros protein expression by western blot with antibodies against Aiolos (Santa Cruz, Dallas, Tex.) and Ikaros (Millipore, Billerica, Mass.).

The next assay has as its system Ikaros. Kind of assay: Ikaros protein degradation in Jurkat cells. The assay is classed as cell-based. The procedure: as §1

For the molecule `O=C1CC[C@H](N2Cc3c(OCc4ccc(CN5CCOCC5)cc4)cccc3C2=O)C(=O)N1` [Compound B, 3-(4-((4-(morpholinomethyl)benzyl)oxy)-1-oxoisoindolin-2-yl)piperidine-2,6-dione], the Aiolos expression result with Aiolos [1] is “inhibited the expression of Aiolos”; in the assay with Aiolos/IKZF3 (Cyno monkeys, all dosing regimens), “generally inhibits the expression of Aiolos”; in the assay on Aiolos [2] it was “inhibited the expression of Ikaros and Aiolos”. The “Aiolos 42 kD” value in the assay with Aiolos/IKZF3 (Group 2, QD dosing) is “increased Aiolos 42 kD”; in the assay on Aiolos/IKZF3 (Group 3, Q2D dosing), “increased Aiolos 42 kD”; in the assay with Aiolos/IKZF3 (Group 4, 4 day/week dosing), “increased Aiolos 42 kD”. The “Aiolos 58 kD” value was “reduced Aiolos 58 kD” with Aiolos/IKZF3 (Group 2, QD dosing); “reduced Aiolos 58 kD” with Aiolos/IKZF3 (Group 3, Q2D dosing); “reduced Aiolos 58 kD” with Aiolos/IKZF3 (Group 4, 4 day/week dosing).

Regarding `Nc1cccc2c1C(=O)N(C1CCC(=O)NC1=O)C2=O` (centres unmarked) [pomalidomide, reference compound], the “Down-regulation of Aiolos” value with Aiolos [3] is on record as “loss of CRBN protein prevents down-regulation of Aiolos”.

As for `Nc1cccc2c1CN(C1CCC(=O)NC1=O)C2=O` (centres unmarked) [lenalidomide], the “Effect on non-ABC-DLBCL cells” value with DLBCL cell lines is listed as “minimal effect on non-ABC-DLBCL cells”. Further, the “Proliferation of ABC-DLBCL cells” value with DLBCL cell lines (in vitro) is “preferentially suppressed proliferation of ABC-DLBCL cells”.

Regarding `Cc1nc2cccc(N)c2c(=O)n1C1CCC(=O)NC1=O` (centres unmarked) [Compound A, 3-(5-amino-2-methyl-4-oxo-4H-quinazolin-3-yl)-piperidine-2,6-dione], the “Endogenous and over-expressed Aiolos” value with Aiolos [4] is “degrades both endogenous and over-expressed Aiolos”. For the same molecule, the Ikaros protein degradation entry in the assay with Ikaros is given as “Ikaros degradation is Aiolos-independent”.

(Values after patent US9857359B2, “Methods for determining drug efficacy using cereblon-associated proteins” (CELGENE CORPORATION, priority 2012, dated 2018).)
